# Results as given in patent US20240000803A1, “ORAL FORMULATION OF BIOLOGICALLY ACTIVE MATERIAL CONJUGATE HAVING BIOTIN MOIETY, FATTY ACID MOIETY, OR COMBINATION THEREOF COUPLED THERETO” (D&D Pharmatech Inc., priority 2020, published 2024).
# Where no end group is shown, it is not given here. [ ]: non-standard residue; d: D form. The star is where a group is joined. Biotin = O=C1N[C@H]2[C@H](CS[C@H]2CCCCC(=O)*)N1; F11 = C18-Glu-EG2-EG2-NHS; Aib = CC(C)(N)C(=O)O
# Tested on: glycated hemoglobin
# Test: Glycated hemoglobin change after oral administration once daily over 3 weeks (Conjugate 56)
# Format: in vivo
# Conditions: mice, oral once daily 3 weeks, formulation with one bile acid and propyl gallate
# Protocol: Physiologically active substances bound to a biotin moiety prepared in accordance with the above example were formulated by dissolving in a vehicle with the compositions of excipients shown in Table 23. These were orally administered to mice once daily over 3 weeks, and changes in glycated hemoglobin were measured.
row,Substance,glycated hemoglobin reduction effect
1,Conjugate 56: Polypeptide SEQ ID NO 40 (glucagon derivative) with biotin moiety B38 at K12 and fatty acid moiety F11 at K30 (H[Aib]QGTFTSDYSK(Biotin)YLDEQAAKEFVQWLMNTK(F11)),exhibited a glycated hemoglobin reduction effect

# Same assay, conditions: mice, oral once daily over 3 weeks, 1.343 mg/kg; sCDC 68 mg/kg, PG 34 mg/kg
row,Substance,ΔGlycated Hemoglobin
1,Conjugate 56: Polypeptide SEQ ID NO 40 (glucagon derivative) with biotin moiety B38 at K12 and fatty acid moiety F11 at K30 (H[Aib]QGTFTSDYSK(Biotin)YLDEQAAKEFVQWLMNTK(F11)),−0.47 ± 0.34%

# Same assay, conditions: mice, oral once daily over 3 weeks, 4.475 mg/kg; sCDC 68 mg/kg, PG 34 mg/kg
row,Substance,ΔGlycated Hemoglobin
1,Conjugate 56: Polypeptide SEQ ID NO 40 (glucagon derivative) with biotin moiety B38 at K12 and fatty acid moiety F11 at K30 (H[Aib]QGTFTSDYSK(Biotin)YLDEQAAKEFVQWLMNTK(F11)),−0.98 ± 0.67%

# Tested on: not listed separately
# Test: Weight reduction and feed intake reduction over 24 hours after oral administration
# Format: in vivo
# Conditions: mice, formulation with sodium chenodeoxycholate and propyl gallate (Table 13)
# Protocol: Physiologically active substances bound to a biotin moiety, fatty acid moiety or a combination thereof, prepared in accordance with the above example, were formulated by dissolving in a vehicle (0.02% polysorbate 80 in 10 mM PBS (pH 7.4)) with the compositions of excipients shown in Table 13, then administered orally to mice. Weight reduction and feed intake reduction were measured over 24 hours.
row,Substance,Weight loss compared to untreated group (%)
1,Conjugate 33: Polypeptide SEQ ID NO 24 (amylin derivative) with biotin moiety B38 at K1 (K(Biotin)CNTATCATQRLANFLVHSSNNFGPILPPTNVGSNTY; ends and bridges not checked),−4.07 ± 1.30%
2,Conjugate 36: Polypeptide SEQ ID NO 26 (amylin derivative) with biotin moiety B38 at K1 (K(Biotin)CNTATCATQRLADFLRHSSPNFGAIPSSTNVGSRTY; ends and bridges not checked),−4.53 ± 0.86%
3,Conjugate 39: Polypeptide SEQ ID NO 28 (amylin derivative) with biotin moiety B38 at K1 (K(Biotin)CNTATCATQRLADFLRHSSNNFGAIPSSTNVGSRTY; ends and bridges not checked),−1.99 ± 0.94%
4,"Conjugate 61: Polypeptide SEQ ID NO 24 with biotin moiety B38 at K1 and fatty acid moiety F11 at K1 (KCNTATCATQRLANFLVHSSNNFGPILPPTNVGSNTY; not fully specified (residue 1); ends and bridges not checked; also: biotin B38 and fatty acid F11 both at K1, attachment sites not given here)",−2.96 ± 4.22%
5,"Conjugate 62: Polypeptide SEQ ID NO 26 with biotin moiety B38 at K1 and fatty acid moiety F11 at K1 (KCNTATCATQRLADFLRHSSPNFGAIPSSTNVGSRTY; not fully specified (residue 1); ends and bridges not checked; also: biotin B38 and fatty acid F11 both at K1, attachment sites not given here)",−3.32 ± 1.31%
6,"Conjugate 63: Polypeptide SEQ ID NO 28 with biotin moiety B38 at K1 and fatty acid moiety F11 at K1 (KCNTATCATQRLADFLRHSSNNFGAIPSSTNVGSRTY; not fully specified (residue 1); ends and bridges not checked; also: biotin B38 and fatty acid F11 both at K1, attachment sites not given here)",−2.41 ± 0.78%
7,"Conjugate 64: Polypeptide SEQ ID NO 30 with biotin moiety B38 at K35 and fatty acid moiety F11 at K1 (RCNTATCATQRLADFLRHSSNNFGAIPSSTNVGSK(Biotin)TY; ends and bridges not checked; also: fatty acid F11 at K1, but residue 1 is R)",−3.38 ± 1.26%
8,Polypeptide SEQ ID NO: 24: amylin derivative KCNTATCATQRLANFLVHSSNNFGPILPPTNVGSNTY (Amylin derivative) [reference compound],−2.63 ± 1.06%
9,Polypeptide SEQ ID NO: 26: amylin derivative KCNTATCATQRLADFLRHSSPNFGAIPSSTNVGSRTY (Amylin derivative) [reference compound],−3.13 ± 1.05%
10,Polypeptide SEQ ID NO: 28: amylin derivative KCNTATCATQRLADFLRHSSNNFGAIPSSTNVGSRTY (Amylin derivative) [reference compound],−1.11 ± 0.84%
11,Polypeptide SEQ ID NO: 30: amylin derivative RCNTATCATQRLADFLRHSSNNFGAIPSSTNVGSKTY (Amylin derivative) [reference compound],−1.17 ± 0.76%
